Each structure is given as a SMILES string. pEC50: −log10 of the molar value. Values after ≈ are worked out from the molar mass of the structure shown.

We go through 20 molecules from ChEMBL document CHEMBL1255199, “Endochin optimization: structure-activity and structure-property relationship studies of 3-substituted 2-methyl-4(1H)-quinolones with antimalarial activity” (J Med Chem, 2010).

A short description of data set [1]: Lipophilicity, log D of the compound at pH 7.4. The note with it: buffer.
For data set [2], the system named is J774. Description: Cytotoxicity against mouse J774 cells. It is filed as cell-based.
Data set [3] deals with Plasmodium falciparum. Briefly: Antimalarial activity against chloroquine, mefloquine, pyrimethamine and atovaquone-resistant Plasmodium falciparum TM90-C2B infected in human A+ erythrocytes after 72 hrs by SYBR Green I assay. Type of data set: functional, organism-based.
The test system of data set [4] is Plasmodium falciparum. Briefly: Antimalarial activity against chloroquine and pyrimethamine-resistant Plasmodium falciparum W2 infected in human A+ erythrocytes after 72 hrs by SYBR Green I assay. Type of data set: functional, organism-based. The note with it: W2, 72 h.
Data set [5] is described as follows: physchem. The note with it: aqueous, pH 7.4.
Description: Aqueous solubility of the compound at pH 7.4 by HPLC analysis
Data set [6] in a line: Passive transcellular permeability of the compound at pH 4 by PAMPA. It is filed as ADME. To be noted: for Papp: read-out: permeability.
Data set [7] is described as follows: Passive transcellular permeability of the compound at pH 7.4 by PAMPA. It is filed as ADME. To be noted: read-out: permeability.
The nature of data set [8]: in vitro. The note with it: mouse, J774 cells.
Description: Cytotoxicity index, ratio of EC50 for mice (Mus musculus) J774 cells to EC50 for chloroquine, mefloquine, pyrimethamine and atovaquone-resistant Plasmodium falciparum TM90-C2B

Regarding `CCCCC#Cc1c(C)[nH]c2ccc(F)cc2c1=O`, in data set [1], the logD was 5.64. For the same molecule, the figures for the pEC50 in data set [2], in data set [3] and in data set [4] were under 4.41, under 5.02 and under 5.02, respectively. Further, in data set [5], the concentration in solution (solubility) came to 2 µM (≈ 0.515 µg/mL). Besides, the values for the Papp in data set [6] and in data set [7] were 3140 nm/s and 4950 nm/s, respectively. In data set [8], the selectivity ratio was over 4.
In the case of `Cc1[nH]c2ccccc2c(=O)c1/C=C/c1ccc(O)cc1`, the logD in data set [1] is 1.77. Further, the pEC50 in data set [2] was under 4.44; in data set [3], under 5.05; in data set [4] it was under 5.05. Moreover, the solubility in data set [5] was over 20 µM. Besides, the Papp stood at 107 nm/s in data set [6] and 170 nm/s in data set [7]. The selectivity ratio in data set [8] is over 4.
Take `Cc1[nH]c2ccc(Cl)cc2c(=O)c1Cc1ccccc1`: the logD in data set [1] amounted to 2.79. Besides, the pEC50 in data set [2] was under 4.45; in data set [3], 5.48; in data set [4], 5.61. The molecule further came in with a solubility in data set [5] of under 2 µM. For the same molecule, the Papp in data set [6] turned out to be 4220 nm/s; in data set [7], 4150 nm/s. Further, the selectivity ratio in data set [8] was over 10.7.
In the case of `Cc1[nH]c2cccc(Cl)c2c(=O)c1-c1ccccc1`, in data set [1], the logD turned out to be 1.88. Besides, the pEC50 is under 4.43 in data set [2], 5.32 in data set [3] and 5.30 in data set [4]. The same molecule yielded a solubility in data set [5] of 10 µM (≈ 2.7 µg/mL). Moreover, the Papp in data set [6] was 910 nm/s; in data set [7], 996 nm/s. The selectivity ratio in data set [8] is over 7.8.
Consider `Cc1[nH]c2cc(Cl)cc(Cl)c2c(=O)c1-c1ccccc1`, for which, in data set [1], the logD is 2.72. Also, the pEC50 in data set [2] is under 4.48; in data set [3], 5.46; in data set [4] it was 5.67. In addition, the solubility in data set [5] was found to be 5 µM (≈ 1.52 µg/mL). The figures for the Papp in data set [6] and in data set [7] were 4600 nm/s and 3200 nm/s, respectively. In addition, in data set [8], the selectivity ratio was over 9.5.
On to `Cc1[nH]c2ccc(Cl)cc2c(=O)c1Br`, for which the logD in data set [1] was 2.02. For the same molecule, the pEC50 in data set [2] is 4.66; in data set [3], 6.90; in data set [4] it was 6.07. In data set [5], the concentration in solution (solubility) was 5 µM (≈ 1.36 µg/mL). Besides, the Papp in data set [6] was 845 nm/s; in data set [7], 877 nm/s. In addition, the selectivity ratio in data set [8] worked out at 172.
Consider `COc1cc2[nH]c(C)c(C3CCCCC3)c(=O)c2cc1Cl`, for which the log distribution coefficient (logD) in data set [1] is 3.04. Moreover, the pEC50 is under 4.49 in data set [2], 6.40 in data set [3] and 6.63 in data set [4]. Also, in data set [5], the concentration in solution (solubility) was 5 µM (≈ 1.53 µg/mL). Further, the permeability in data set [6] is 12358.5 nm/s. Also, in data set [7], the Papp turned out to be 6300 nm/s. For the same molecule, the selectivity ratio in data set [8] was over 82.3.
`C=C(CCCCC)c1c(C)[nH]c2cc(OC)c(Cl)cc2c1=O` displayed a logD in data set [1] of 3.58. The figures for the pEC50 in data set [2], in data set [3] and in data set [4] were 4.72, 7.83 and 7.40, respectively. The molecule further returned a solubility in data set [5] of 2 µM (≈ 0.64 µg/mL). For the same molecule, the results for the Papp in data set [6] and in data set [7] were 7680 nm/s and 7550 nm/s, respectively. Also, the selectivity ratio in data set [8] was found to be 1280.
Consider `Cc1[nH]c2ccc(Cl)cc2c(=O)c1-c1ccccc1`, for which the logD in data set [1] worked out at 2.43. The figures for the pEC50 in data set [2], in data set [3] and in data set [4] were under 4.43, 6.11 and 6.61, respectively. The amount in solution in data set [5] (solubility) came to 5 µM (≈ 1.35 µg/mL). Besides, the Papp in data set [6] came to 1110 nm/s; in data set [7] it was 1080 nm/s. The selectivity ratio in data set [8] is over 47.7.
In data set [1], `COc1cccc2[nH]c(C)c(-c3ccccc3)c(=O)c12` yielded a logD of 1.63. The pEC50 in data set [2] was under 4.42; in data set [3], 5.29; in data set [4], 5.09. The molecule also gave a solubility in data set [5] of over 20 µM. Further, the Papp in data set [6] worked out at 244 nm/s; in data set [7], 3330 nm/s. Besides, in data set [8], the selectivity ratio is over 7.4.
`Cc1[nH]c2ccccc2c(=O)c1/C=C/C(=O)OC(C)(C)C`: the logD in data set [1] worked out at 2.34. For the same molecule, the pEC50 was under 4.40 in data set [2], under 5.08 in data set [3] and under 5.08 in data set [4]. Further, the solubility in data set [5] was over 20 µM. Moreover, the values for the Papp in data set [6] and in data set [7] were 1050 nm/s and 1240 nm/s, respectively. In addition, in data set [8], the selectivity ratio is over 4.8.
With `Cc1[nH]c2c(Cl)cccc2c(=O)c1Cc1ccccc1`, the logD in data set [1] is 2.78. Also, the pEC50 was under 4.45 in data set [2], under 5.05 in data set [3] and under 5.05 in data set [4]. Further, the solubility in data set [5] was determined as 5 µM (≈ 1.42 µg/mL). Moreover, the Papp in data set [6] was 4300 nm/s; in data set [7] it was 4120 nm/s. Moreover, the selectivity ratio in data set [8] is over 4.
In the case of `COc1ccc2c(=O)c(Cc3ccccc3)c(C)[nH]c2c1`, in data set [1], the logD amounted to 2.52. For the same molecule, the pEC50 in data set [2] is under 4.45; in data set [3], 5.86; in data set [4], 6.13. In data set [5], this molecule came in with a solubility of 5 µM (≈ 1.4 µg/mL). In addition, the Papp came to 2000 nm/s in data set [6] and 2400 nm/s in data set [7]. The selectivity ratio in data set [8] is over 25.9.
Molecule `COc1ccc2[nH]c(C)c(Cc3ccccc3)c(=O)c2c1` gave a logD in data set [1] of 2.53. In addition, the pEC50 is under 4.63 in data set [2], 4.62 in data set [3] and under 5.05 in data set [4]. Also, the concentration in solution in data set [5] (solubility) came to 2 µM (≈ 0.559 µg/mL). For the same molecule, the Papp in data set [6] worked out at 1670 nm/s; in data set [7], 1880 nm/s. Besides, in data set [8], the selectivity ratio was over 1.
Molecule `COc1cc2[nH]c(C)c(C)c(=O)c2cc1Cl` displayed a logD in data set [1] of 1.86. Further, the pEC50 in data set [2] is 4.91; in data set [3], 7.56; in data set [4] it was 7.25. Moreover, the solubility in data set [5] was 5 µM (≈ 1.19 µg/mL). Besides, the Papp in data set [6] came to 370 nm/s; in data set [7], 592 nm/s. For the same molecule, the selectivity ratio in data set [8] came to 449.
For `Cc1[nH]c2ccc(Br)cc2c(=O)c1Br`, the logD in data set [1] amounted to 1.76. In addition, the pEC50 in data set [2] is under 4.50; in data set [3] it was 6.47; in data set [4], 5.85. For the same molecule, in data set [5], the solubility is over 20 µM. Further, the Papp in data set [6] came to 1330 nm/s; in data set [7], 952 nm/s. The selectivity ratio in data set [8] is over 92.9.
Turning to `COc1cc2[nH]c(C)c(-c3ccccc3)c(=O)c2cc1F`, in data set [1], the logD is 1.72. Moreover, the pEC50 was under 4.45 in data set [2], 7.08 in data set [3] and 6.78 in data set [4]. The solubility in data set [5] was 5 µM (≈ 1.42 µg/mL). Also, the Papp in data set [6] was determined as 1920 nm/s; in data set [7], 1240 nm/s. In addition, in data set [8], the selectivity ratio was over 425.
Molecule `Cc1[nH]c2c(Cl)cc(Cl)cc2c(=O)c1-c1ccccc1` showed a logD in data set [1] of 3.32. The pEC50 is under 4.48 in data set [2], under 5.09 in data set [3] and under 5.09 in data set [4]. In addition, the solubility in data set [5] is under 2 µM. The results for the Papp in data set [6] and in data set [7] were 1620 nm/s and 2320 nm/s, respectively. For the same molecule, the selectivity ratio in data set [8] was over 4.
`Cc1[nH]c2cccc(Cl)c2c(=O)c1Cc1ccccc1` returned a logD in data set [1] of 2.65. Moreover, the pEC50 was under 4.45 in data set [2], 5.28 in data set [3] and 6.20 in data set [4]. Besides, in data set [5], the solubility turned out to be 2 µM (≈ 0.568 µg/mL). In addition, the Papp in data set [6] was 2440 nm/s; in data set [7], 2510 nm/s. Further, the selectivity ratio in data set [8] was over 6.7.
In turn, `Cc1[nH]c2c(Cl)cccc2c(=O)c1-c1ccccc1` displayed a logD in data set [1] of 2.6. Also, the pEC50 in data set [2] is under 4.43; in data set [3], under 5.03; in data set [4], under 5.03. For the same molecule, in data set [5], the concentration in solution (solubility) came to 5 µM (≈ 1.35 µg/mL). For the same molecule, the Papp in data set [6] was 1580 nm/s; in data set [7] it was 1650 nm/s. In addition, the selectivity ratio in data set [8] was over 4.
